Results: patent publication US20060110790A1, “Expression system for large functional proteins” (priority 2002, published 2006)

Target: T1, ABCR K939M, K1978M and K939M/K1978M mutants (Homo sapiens, UniProt P78363, K1978M/K969M)
T1 construct: made in house
Assay: ATPase activity of Walker A lysine-to-methionine mutants
Format: biochemical
Details: 50 μM all-trans retinal
Description: FIG. 4. Lysine to methionine Walker A mutations in ABCR abolish ATP hydrolysis but not ATP binding. A. ATPase activity was measured in the absence (white bars) or presence of 50 μM all-trans retinal (grey bars). WT, wild-type; K969M in NBD1; K1978M in NBD2; MM, K969M/K1978M double mutant; NCM, N-half co-expressed with C-half containing a K1978M mutation. B. ATP photoaffinity labeling was carried out by irradiating membranes from COS-1 cells expressing wild-type (WT), K969M, K1978M, or K969M/K1978M double mutant (MM) with 3 μM 8-azido-[α-^32P]ATp. The labeled protein was isolated with Rim3F4-Sepharose and separated on SDS gels. Left panel: gel stained with Coomassie blue. Right panel: corresponding ^32P labeling obtained with a phosphorimager. All mutant proteins were labeled with 8-azido-[α-^32P]ATP, but the double mutant bound less nucleotide.
ATPase activity was measured as described previously (Ahn, J., Wong, J. T., and Molday, R. S. (2000) J Biol Chem 275(27), 20399-405) using 50 μM [α^32P]ATP and thin layer chromatography. The all-trans retinal concentration was determined spectrophotometrically (λ383 nm=42.88 mM^−1 cm^−1). Protein concentration was estimated from the eluate before reconstitution by laser densitometry of Coomassie blue stained gels using bovine serum albumin as a standard. […]

T1 sequence (P78363 whole entry K969M/K1978M): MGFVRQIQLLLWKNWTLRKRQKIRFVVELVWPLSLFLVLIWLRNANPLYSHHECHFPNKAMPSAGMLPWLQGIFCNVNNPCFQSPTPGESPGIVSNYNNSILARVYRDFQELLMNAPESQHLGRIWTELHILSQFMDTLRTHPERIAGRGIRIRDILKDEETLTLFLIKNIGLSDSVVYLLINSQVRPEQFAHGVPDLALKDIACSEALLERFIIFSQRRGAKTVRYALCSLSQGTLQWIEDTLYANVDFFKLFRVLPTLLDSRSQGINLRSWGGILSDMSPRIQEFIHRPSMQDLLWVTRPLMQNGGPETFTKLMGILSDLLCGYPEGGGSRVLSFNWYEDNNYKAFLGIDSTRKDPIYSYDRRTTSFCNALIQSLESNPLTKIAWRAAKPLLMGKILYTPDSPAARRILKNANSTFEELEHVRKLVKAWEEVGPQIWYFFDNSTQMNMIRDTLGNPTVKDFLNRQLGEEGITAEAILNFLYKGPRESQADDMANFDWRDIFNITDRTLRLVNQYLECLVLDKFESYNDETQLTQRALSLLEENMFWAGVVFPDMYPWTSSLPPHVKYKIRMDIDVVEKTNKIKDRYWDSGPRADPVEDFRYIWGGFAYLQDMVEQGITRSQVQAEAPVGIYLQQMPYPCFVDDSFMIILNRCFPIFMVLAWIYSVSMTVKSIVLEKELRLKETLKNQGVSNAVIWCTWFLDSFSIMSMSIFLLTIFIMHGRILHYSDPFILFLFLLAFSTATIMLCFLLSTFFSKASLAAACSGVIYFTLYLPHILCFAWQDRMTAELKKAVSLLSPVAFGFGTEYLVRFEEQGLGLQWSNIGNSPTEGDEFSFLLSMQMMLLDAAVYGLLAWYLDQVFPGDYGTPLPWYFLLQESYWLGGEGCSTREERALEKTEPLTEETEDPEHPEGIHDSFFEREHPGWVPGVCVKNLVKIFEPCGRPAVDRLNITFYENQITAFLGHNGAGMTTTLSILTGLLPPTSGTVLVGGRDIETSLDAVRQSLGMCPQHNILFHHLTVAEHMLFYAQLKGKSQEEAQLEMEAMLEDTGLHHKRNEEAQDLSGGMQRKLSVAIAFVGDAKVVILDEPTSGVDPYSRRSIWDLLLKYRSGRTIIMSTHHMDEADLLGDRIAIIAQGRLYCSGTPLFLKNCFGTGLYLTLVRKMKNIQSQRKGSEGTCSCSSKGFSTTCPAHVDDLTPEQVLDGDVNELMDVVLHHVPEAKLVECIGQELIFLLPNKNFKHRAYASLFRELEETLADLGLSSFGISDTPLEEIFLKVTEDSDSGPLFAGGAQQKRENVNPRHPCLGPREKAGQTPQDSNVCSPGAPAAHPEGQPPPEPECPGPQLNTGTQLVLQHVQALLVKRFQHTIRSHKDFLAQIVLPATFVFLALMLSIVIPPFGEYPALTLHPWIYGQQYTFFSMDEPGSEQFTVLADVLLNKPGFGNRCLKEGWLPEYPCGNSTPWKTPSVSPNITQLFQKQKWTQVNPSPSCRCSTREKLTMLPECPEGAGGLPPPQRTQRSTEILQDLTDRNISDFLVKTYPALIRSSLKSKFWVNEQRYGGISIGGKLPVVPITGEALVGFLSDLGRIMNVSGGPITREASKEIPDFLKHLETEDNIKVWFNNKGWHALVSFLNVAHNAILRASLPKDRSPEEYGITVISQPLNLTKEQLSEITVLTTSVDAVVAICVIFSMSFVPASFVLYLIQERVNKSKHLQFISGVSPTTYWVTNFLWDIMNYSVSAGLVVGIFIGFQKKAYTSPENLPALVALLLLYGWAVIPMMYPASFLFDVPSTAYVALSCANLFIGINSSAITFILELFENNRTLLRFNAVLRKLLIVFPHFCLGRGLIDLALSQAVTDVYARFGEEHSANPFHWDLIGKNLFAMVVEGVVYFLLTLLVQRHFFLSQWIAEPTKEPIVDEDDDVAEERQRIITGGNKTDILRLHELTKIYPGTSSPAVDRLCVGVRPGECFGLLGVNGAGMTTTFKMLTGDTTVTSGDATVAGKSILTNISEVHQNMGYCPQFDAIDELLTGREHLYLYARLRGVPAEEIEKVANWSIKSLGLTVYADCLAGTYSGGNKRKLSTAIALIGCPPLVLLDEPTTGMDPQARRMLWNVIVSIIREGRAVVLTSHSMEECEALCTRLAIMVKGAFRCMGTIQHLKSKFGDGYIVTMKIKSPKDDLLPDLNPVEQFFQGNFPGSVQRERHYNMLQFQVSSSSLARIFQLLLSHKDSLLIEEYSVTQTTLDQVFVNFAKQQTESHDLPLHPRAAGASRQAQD

retinal activation of ATPase activity: abolished retinal activation
SMILES: CC1=C(/C=C/C(C)=C/C=C/C(C)=C/C=O)C(C)(C)CCC1 [all-trans retinal]
